# What was measured:
# [1] = system: chondrocytes of the rabbit knee joint; assay: Synthesis of type II collagen by primary culture of chondrocytes (density of 116 kD band on electrophoresis); assay type: cell-based; settings: for Activity of recovering the synthesis of type II collagen inhibited by arachidonic acid: fatty acid added at 300 μM
# Procedure: Using the primary culture of chondrocytes of the rabbit knee joint, the effects of mead acid on the synthesis of type II collagen was compared with that of other fatty acids, in particular arachidonic acid. The mead acid used was 99% 5,8,11-cis-eicosatrienoic acid ethyl ester highly purified in the same manner as in Example 1, and for arachidonic acid, oleic acid and linoleic acid, the commercially available 99% ethyl esters thereof were used. Chondrocytes were prepared from the knee joints of 4-week old Japan white rabbits in accordance with the method of Suzuki and Shimomura [Shimomurra, Y., Yoneda, T., Suzuki, F. Osteogenesis by chondrocyte from growth cartilage of rat rib., Calcif. Tissue Int., 19:179-187, 1975]. The chondrocytes were plated at 10,000 cells/well of the 96-well plate (Iwaki Glass K.K.) in (MEM medium (50 μg/ml vitamin C, 1 ng/ml b-FGF were added) supplemented with 10% bovine calf serum, and pre-incubated for two days (5% CO2, 37° C.). The fatty acids were suspended in 0.0625% HCO-60 prior to use. As the pre-treatment with the fatty acids, the plates were divided into three groups and added thereto the solvent (0.0625% HCO-60) (group A), mead acid (the final concentration, 300 μM) (group B), and arachidonic acid (the final concentration, 300 μM) (group C), and then incubated for about 5 days while the culture medium and the fatty acids were replaced with fresh ones every two days.
# Subsequently, the culture medium was replaced with αMEM medium (1 μg/ml transferrin, 1 μM dexamethasone, 2 μg/ml insulin, 50 μg/ml vitamin C) and each fatty acid (mead acid, arachidonic acid, oleic acid, and linoleic acid) was added thereto to a final concentration of 300 μM followed by incubation for seven days to synthesize extracellular matrix. The culture medium and each of the fatty acids were replaced every 2 days with freshly prepared ones. Pepsin (2 mg/ml) acetate solution was added to the plate at 200 μl/well and treated at 37° C. for 24 hours. The residue was recovered from each well and was centrifuged at 15,000 rpm for 10 minutes to form a precipitate, which was then washed once with tris-EDTA buffer (pH 8.0) and dissolved in 100 μl of the SDS sample buffer.
# The amount of type II collagen synthesized was determined by electrophoresing 1/10 volume of each sample solution on the multigel 4/20 (Daiichi Kagaku K.K.) and measuring the density of the 116 kD band after staining with Cooumassie Brilliant Blue.
# [2] = system: rabbit model of osteoarthritis; assay: Range of motion (ROM) of the right knee joint in rabbit models of osteoarthritis prepared using arthrodesis by cast; assay type: in vivo; settings: 0.6 ml of 1 mg/ml solution/joint, right articular cavity twice per week for five weeks; solvent group 70%
# Procedure: Models of osteoarthritis were prepared using arthrodesis by cast. The animals used were 12-week old male rabbits (Kbl: NZW, Kitayama Labesu K. K.). Under anesthesia by intramuscular administration of 2 mg/kg of xylazine hydrochloride (Selactal, Bayer A. G.) and 50 mg/kg of ketamine hydrochloride (Ketalar 50 for animals, Sankyo K.K.) (hereinafter referred to as “under anesthesia”), hair was cut off the right hind leg. Then after the region from the upper thigh to the toe was covered with the stockinette and cast pad (3M Medicine K.K.), the knee joint was fixed for three weeks at a stretched and bent position by casting tape (3M Medicine K.K.). […]
# In accordance with Example 2, models of osteoarthritis of the knee were prepared using arthrodesis by cast and were divided into three groups of five animals per group so that the average weight and the range of motion of joints of each group became uniform. […] In accordance with Example 2, dosage samples were administered in the right articular cavity twice per week for five weeks and ROM of the joint of the right knee was measured.
# [3] = system: carrageenan-induced edema; settings: rat models; cited from earlier work
# [4] = group C pretreated with arachidonic acid 300 μM (FIG. 3, sample No. 11-15)
SMILES,"Activity of recovering the synthesis of type II collagen inhibited by arachidonic acid [1, 4]",ROM at week five after the start of administration [2] [%],other results
CCCCC/C=C\C/C=C\C/C=C\C/C=C\CCCC(=O)O [arachidonic acid],,,"Effect of addition of fatty acid on synthesis of type II collagen ([1]; 300 μM, seven days, group A pretreated with solvent (FIG. 3, sample No. 1-5)): inhibited synthesis of type II collagen; Inhibition of type II collagen synthesis in group C pretreated with arachidonic acid ([1]; 300 μM, group C pretreated with arachidonic acid 300 μM (FIG. 3, sample No. 11-15)): more conspicuous"
CCCCCCCC/C=C\CCCCCCCC(=O)O [oleic acid],not observed,,
"CCCCCCCCC=CC/C=C\CCCCCCC(=O)OCC [solution B, 8,11-cis-eicosadienoic acid ethyl ester]",,83.6,
CCCCC/C=C\C/C=C\CCCCCCCC(=O)O [linoleic acid],not observed,,
"CCCCCCCCC=CCC=CCC=CCCCC(=O)O [5,8,11-eicosatrienoic acid]",,,Anti-inflammatory effect on carrageenan-induced edema [3]: anti-inflammatory effect
"CCCCCCCCC=CC/C=C\CCCCC(=O)OCC [solution A, 6,9-cis-octadecadienoic acid ethyl ester]",,80.2,

# Source: patent US6765020B2, “Drugs for prevention and treatment of diseases caused by abnormalities in cartilage tissues” (Suntory Limited, priority 1995, dated 2004)
